What all share (type): biochemical
Test [1] concerns the target JAK2 (Homo sapiens, UniProt O60674). In words: Enzyme activity inhibition of JAK kinases (ULight-JAK substrate, Eu-antibody): JAK2. The conditions noted are these: JAK2 1 nM, ATP 10 μM, 1 hour reaction at room temperature; read-out: JAK2 half-maximum inhibitory concentration. The protocol:
(§1) 1× test buffer: The test buffer was prepared, and diluted with deionized water (deionized water: test buffer=9:1) to obtain the 1×test buffer. 4× kinase solution: JAK kinase was diluted 4-fold with the kinase reaction buffer to a final concentration (JAK1: 80 nM, JAK2/JAK3/Tyk2: 4 nM). 4×substrate solution: ULight™-JAK (Tyr1023) substrate was diluted with the kinase reaction buffer to 200 nM (final concentration: 50 nM). 4× ATP solution: ATP was diluted 4-fold with the kinase reaction buffer to a final concentration (JAK1: 160 μM, JAK2/JAK3/Tyk2: 40 μM). 4× test compound solution: The test compound was dissolved with DMSO to prepare 10 mM stock solutions, and diluted 3-fold serially to required concentrations, 10 concentrations were set for each compound, and final concentrations of the test compound ranged from 10 μM to 0.5 nM. 4× enzyme reaction stop solution: 1× test buffer was used dissolve EDTA to 40 mM (final concentration of EDTA: 10 mM). 4× test antibody solution: Eu-labeled test antibody (anti-phosphotyrosine (PT66)) was diluted with 1× test buffer to 8 nM (final concentration of antibody: 2 nM). […] After incubation of the antibody, a signal value of each well was measured via Envision plate reader. […]

The target of test [2] is Tyk2 (Homo sapiens, UniProt P29597). In words: Enzyme activity inhibition of JAK kinases (ULight-JAK substrate, Eu-antibody): Tyk2. The conditions noted are these: ATP 10 μM, 1 hour reaction at room temperature; read-out: Tyk2 half-maximum inhibitory concentration. The protocol: as §1
Sequence of Tyk2 (P29597 whole entry): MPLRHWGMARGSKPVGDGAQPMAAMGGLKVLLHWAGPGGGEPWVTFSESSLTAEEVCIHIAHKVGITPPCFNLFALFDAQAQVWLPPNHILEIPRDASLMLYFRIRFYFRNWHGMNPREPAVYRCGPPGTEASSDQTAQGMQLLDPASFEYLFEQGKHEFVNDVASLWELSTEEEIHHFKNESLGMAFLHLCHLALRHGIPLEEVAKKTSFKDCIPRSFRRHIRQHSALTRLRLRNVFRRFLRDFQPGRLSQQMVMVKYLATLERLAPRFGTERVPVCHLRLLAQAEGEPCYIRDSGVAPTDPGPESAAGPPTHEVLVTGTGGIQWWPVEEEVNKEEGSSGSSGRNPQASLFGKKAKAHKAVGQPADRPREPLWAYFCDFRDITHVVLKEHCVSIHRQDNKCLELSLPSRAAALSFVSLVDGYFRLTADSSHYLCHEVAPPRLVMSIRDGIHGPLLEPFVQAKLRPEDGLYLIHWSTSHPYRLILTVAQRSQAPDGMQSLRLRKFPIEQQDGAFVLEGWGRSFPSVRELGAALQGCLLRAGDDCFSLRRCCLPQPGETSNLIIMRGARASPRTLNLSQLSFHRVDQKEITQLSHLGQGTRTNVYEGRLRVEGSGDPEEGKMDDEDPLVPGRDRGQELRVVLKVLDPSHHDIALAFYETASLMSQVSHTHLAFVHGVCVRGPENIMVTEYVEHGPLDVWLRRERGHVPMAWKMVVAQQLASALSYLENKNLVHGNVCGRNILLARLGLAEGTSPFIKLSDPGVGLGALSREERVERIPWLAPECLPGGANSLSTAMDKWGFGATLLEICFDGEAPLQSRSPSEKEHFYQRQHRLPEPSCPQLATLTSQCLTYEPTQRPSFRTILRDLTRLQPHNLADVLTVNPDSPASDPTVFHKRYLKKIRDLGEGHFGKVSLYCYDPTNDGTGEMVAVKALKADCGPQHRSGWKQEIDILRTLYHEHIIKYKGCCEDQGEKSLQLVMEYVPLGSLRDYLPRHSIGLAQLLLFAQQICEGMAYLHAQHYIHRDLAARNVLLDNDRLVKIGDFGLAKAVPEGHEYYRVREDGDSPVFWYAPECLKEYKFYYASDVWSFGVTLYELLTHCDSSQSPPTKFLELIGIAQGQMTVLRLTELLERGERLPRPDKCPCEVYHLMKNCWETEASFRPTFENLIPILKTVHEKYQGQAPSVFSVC
Test [3] has as its target JAK1 (Homo sapiens, UniProt P23458). In words: Enzyme activity inhibition of JAK kinases (ULight-JAK substrate, Eu-antibody): JAK1. The conditions noted are these: JAK1 20 nM, ATP 40 μM, 2 hours reaction at room temperature; read-out: JAK1 half-maximum inhibitory concentration. The protocol: as §1

Sequence of JAK2 (O60674 whole entry): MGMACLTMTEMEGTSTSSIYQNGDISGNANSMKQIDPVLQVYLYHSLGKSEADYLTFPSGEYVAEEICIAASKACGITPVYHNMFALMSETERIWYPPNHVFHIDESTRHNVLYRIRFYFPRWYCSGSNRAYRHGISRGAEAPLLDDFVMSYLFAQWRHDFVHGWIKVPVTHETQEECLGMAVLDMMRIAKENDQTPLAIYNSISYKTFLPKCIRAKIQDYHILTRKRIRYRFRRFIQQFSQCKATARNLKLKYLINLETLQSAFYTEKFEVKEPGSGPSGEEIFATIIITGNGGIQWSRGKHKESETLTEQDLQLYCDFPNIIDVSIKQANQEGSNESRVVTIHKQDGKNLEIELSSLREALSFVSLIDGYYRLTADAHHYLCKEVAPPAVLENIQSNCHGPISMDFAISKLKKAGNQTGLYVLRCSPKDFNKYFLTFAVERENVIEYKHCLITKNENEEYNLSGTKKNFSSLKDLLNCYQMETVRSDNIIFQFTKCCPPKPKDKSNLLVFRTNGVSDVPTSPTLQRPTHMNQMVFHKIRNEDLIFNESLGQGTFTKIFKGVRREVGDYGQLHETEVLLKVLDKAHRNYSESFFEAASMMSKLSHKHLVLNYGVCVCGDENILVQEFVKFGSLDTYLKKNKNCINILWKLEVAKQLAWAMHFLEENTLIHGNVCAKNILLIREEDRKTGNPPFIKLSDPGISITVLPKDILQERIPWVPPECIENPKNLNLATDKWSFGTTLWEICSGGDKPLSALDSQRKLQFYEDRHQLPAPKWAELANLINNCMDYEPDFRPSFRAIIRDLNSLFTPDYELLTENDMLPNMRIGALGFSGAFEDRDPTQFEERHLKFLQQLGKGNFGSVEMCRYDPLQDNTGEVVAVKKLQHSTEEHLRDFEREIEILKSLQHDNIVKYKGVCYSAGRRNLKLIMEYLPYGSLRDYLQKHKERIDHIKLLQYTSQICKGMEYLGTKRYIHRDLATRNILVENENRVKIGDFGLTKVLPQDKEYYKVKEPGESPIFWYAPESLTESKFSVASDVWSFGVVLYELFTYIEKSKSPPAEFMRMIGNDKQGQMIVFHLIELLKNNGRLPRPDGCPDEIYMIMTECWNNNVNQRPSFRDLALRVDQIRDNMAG
Sequence of JAK1 (P23458 whole entry): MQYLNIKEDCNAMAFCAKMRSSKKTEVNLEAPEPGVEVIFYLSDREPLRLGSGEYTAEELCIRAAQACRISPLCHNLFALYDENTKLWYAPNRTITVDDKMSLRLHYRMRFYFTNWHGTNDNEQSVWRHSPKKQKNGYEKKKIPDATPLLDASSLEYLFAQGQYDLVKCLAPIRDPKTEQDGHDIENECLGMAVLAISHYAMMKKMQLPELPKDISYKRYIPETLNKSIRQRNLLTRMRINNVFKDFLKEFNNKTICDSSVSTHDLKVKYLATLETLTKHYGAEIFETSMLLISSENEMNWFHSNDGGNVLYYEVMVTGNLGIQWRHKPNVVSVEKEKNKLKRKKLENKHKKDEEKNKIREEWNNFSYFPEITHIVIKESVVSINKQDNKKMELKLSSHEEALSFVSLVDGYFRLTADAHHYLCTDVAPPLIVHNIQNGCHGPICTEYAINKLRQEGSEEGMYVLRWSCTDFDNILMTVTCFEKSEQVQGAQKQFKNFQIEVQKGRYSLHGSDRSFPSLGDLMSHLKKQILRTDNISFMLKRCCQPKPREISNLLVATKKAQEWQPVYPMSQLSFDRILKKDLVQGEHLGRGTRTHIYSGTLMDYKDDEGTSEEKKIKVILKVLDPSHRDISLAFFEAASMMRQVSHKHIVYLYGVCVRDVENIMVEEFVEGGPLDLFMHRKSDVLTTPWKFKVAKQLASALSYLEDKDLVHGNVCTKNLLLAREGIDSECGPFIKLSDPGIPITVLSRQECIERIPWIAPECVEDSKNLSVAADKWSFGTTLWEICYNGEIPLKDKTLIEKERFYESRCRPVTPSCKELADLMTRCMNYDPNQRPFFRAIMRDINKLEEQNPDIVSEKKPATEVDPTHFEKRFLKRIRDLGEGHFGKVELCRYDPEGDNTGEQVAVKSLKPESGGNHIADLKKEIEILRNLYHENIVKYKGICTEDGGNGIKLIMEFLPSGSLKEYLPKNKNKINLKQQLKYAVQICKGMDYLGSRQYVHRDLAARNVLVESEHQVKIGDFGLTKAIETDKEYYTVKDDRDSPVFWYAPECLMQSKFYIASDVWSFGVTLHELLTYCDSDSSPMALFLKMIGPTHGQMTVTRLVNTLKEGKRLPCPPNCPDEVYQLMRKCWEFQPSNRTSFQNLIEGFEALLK

Take `Cn1cc(-c2cn3ncnc3c(-c3ccn([C@]4(CC#N)C[C@@H](C#N)C4)c3)n2)cn1` [TDM-181020, (1r,3r)-3-(cyanomethyl)-3-(3-(6-(1-methyl-1H-pyrazol-4-yl)-[1,2,4]triazolo[1,5-a]pyrazin-8-yl)-1H-pyrrol-1-yl)cyclobutane-1-carbonitrile]: the results for the IC50 in test [1] and in test [2] were 2420 nM and 111 nM, respectively.
For the compound `Cn1cc(-c2cn3ncnc3c(-c3ccn([C@]4(CC#N)C[C@H](C#N)C4)c3)n2)cn1` [TDM-181021, (1s,3s)-3-(Cyanomethyl)-3-(3-(6-(1-Methyl-1H-Pyrazol-4-Yl)-[1,2,4]Triazolo[1,5-a]Pyrazin-8-Yl)-1H-Pyrrol-1-Yl)Cyclobutane-1-Carbonitrile], the values for the IC50 in test [1], in test [2] and in test [3] were 138 nM, 14 nM and 1210 nM, respectively.
